Measured values reported in paper PMC11882969 (Nature Communications, 2025).
Values joined by “and” are separate entries in the source; they are usually repeats but may differ in a detail not shown here. Identical values can stand only once.

Tests used:
Type in all cases: cell-based
hCB2 [1] = target: T1, hCB2 (Homo sapiens, UniProt P34972); experiment: TRUPATH BRET2 GoA dissociation, HEK293T; parameters: expressed in transfected cells; host or cells: HEK293T cells (ATCC: CRL-3216), transient co-transfection; settings: for functional response, concentration-response point (FigS7e, normalized): Log[drug], replicate columns
T1 sequence (P34972 whole entry): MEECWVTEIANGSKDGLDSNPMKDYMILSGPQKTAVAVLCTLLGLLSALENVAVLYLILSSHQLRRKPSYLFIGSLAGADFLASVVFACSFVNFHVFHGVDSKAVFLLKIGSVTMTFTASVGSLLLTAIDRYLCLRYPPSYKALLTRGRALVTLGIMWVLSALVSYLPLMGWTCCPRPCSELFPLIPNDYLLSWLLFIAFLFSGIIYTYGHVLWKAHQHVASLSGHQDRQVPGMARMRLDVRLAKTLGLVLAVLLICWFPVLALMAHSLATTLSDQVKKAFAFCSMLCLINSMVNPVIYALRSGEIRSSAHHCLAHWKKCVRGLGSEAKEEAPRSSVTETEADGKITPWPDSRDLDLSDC

hCB1 = hCB1 (Homo sapiens, UniProt P21554); experiment: Tango β-arrestin-2 recruitment, HTLA cells, CB1R; parameters: expressed in transfected cells; host or cells: HTLA cells (gift of R. Axel), transient transfection
Chain of hCB1 (P21554 whole entry): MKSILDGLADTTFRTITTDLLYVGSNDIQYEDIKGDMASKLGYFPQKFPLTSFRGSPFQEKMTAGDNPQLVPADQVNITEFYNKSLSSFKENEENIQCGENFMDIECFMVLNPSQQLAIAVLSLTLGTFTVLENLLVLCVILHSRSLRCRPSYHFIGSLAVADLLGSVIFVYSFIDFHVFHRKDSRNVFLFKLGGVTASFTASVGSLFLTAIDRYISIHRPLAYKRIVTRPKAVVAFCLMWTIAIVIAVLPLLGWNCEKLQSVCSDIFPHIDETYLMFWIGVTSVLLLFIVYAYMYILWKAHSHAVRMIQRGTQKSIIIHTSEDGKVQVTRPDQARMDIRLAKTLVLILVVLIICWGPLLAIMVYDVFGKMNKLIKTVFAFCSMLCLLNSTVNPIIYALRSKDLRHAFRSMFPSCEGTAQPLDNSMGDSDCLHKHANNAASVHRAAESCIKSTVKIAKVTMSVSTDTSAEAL

hCB2 [2] = target: T1, hCB2; experiment: Tango β-arrestin-2 recruitment, HTLA cells, CB2R; parameters: expressed in transfected cells; host or cells: HEK293 cells stably expressing human CB2R (Laboratory of Ken Mackie); settings: hCB2

Compound: COC(=O)[C@@H]1[C@@H]2CCC[C@@H]2CN1C(=O)c1cc(C)n(-c2cccc(C(F)(F)F)c2)n1 [‘6439]
- EC50 (hCB2 [1]): 0.0971 µM
- BRET2 + GoA Emax (hCB2 [1]; % of CP-55,940): 81% [34 – 128]
- functional response, concentration-response point (FigS7e, normalized) (hCB2 [1]; M = -5): 12.9272 and 15.9912 and 13.3933 and 14.1917 and 9.02 and 8.9115 and 9.964 and 9.677 and 16.1327 and 18.1614 and 17.7797 and 17.4918
- functional response, concentration-response point (FigS7e, normalized) (hCB2 [1]; M = -5.52): 13.7946 and 14.1528 and 14.7009 and 15.5942 and 7.819 and 9.861 and 11.3112 and 10.248 and 13.5348 (2×) and 16.0255 and 15.2556
- functional response, concentration-response point (FigS7e, normalized) (hCB2 [1]; M = -6): 13.5098 and 11.3391 and 11.5247 and 10.1826 and 7.139 and 7.697 and 10.1371 and 9.4066 and 13.2838 and 11.7338 and 12.1556 and 10.2207
- functional response, concentration-response point (FigS7e, normalized) (hCB2 [1]; M = -6.52): 8.245 and 8.18 and 7.1316 and 8.582 and 5.652 and 4.45 and 4.542 and 4.824 and 8.731 and 6.786 and 7 and 7.151
- functional response, concentration-response point (FigS7e, normalized) (hCB2 [1]; M = -7): 3.477 and 2.251 and 1.336 and 1.824 and 2.04 and 2.129 and 1.242 and 0.8388 and 2.913 and 2.96 and 2.756 and 1.624
- functional response, concentration-response point (FigS7e, normalized) (hCB2 [1]; M = -7.52): 0.5378 and 0.2401 and 2.191 and 0.8701 and 1.326 and 0.4303 and 0.552 and 0.1165 and 1.032 and 0.8075 and 1.393 and 1.507
- functional response, concentration-response point (FigS7e, normalized) (hCB2 [1]; M = -8): 0.2919 and 0.01139 and 0.3868 and 0.4645 and -0.1973 and 0.3762 and 0.9064 and 1.539 and 0.3891 and 0.4427 and 0.6703 and 0.6301
- functional response, concentration-response point (FigS7e, normalized) (hCB2 [1]; M = -8.52): -0.3369 and -0.3039 and -0.3274 and -0.06361 and -0.07458 and 0.1558 and -0.006646 and 0.09378 and 0.05117 and 0.1425 and 0.3472 and 0.4422
- functional response, concentration-response point (FigS7e, normalized) (hCB2 [1]; M = -12): 0.6997 and -0.1013 and -0.3699 and -0.2285
- response, replicate values of concentration-response curve (FigS7f) (hCB1; Log[drug], M = -4.52): -10.8475 and 13.7559 and -1.3408 and 30.128 and 34.5335 and 23.984 and 49.6721 and 28.9692 and 37.5272
- response, replicate values of concentration-response curve (FigS7f) (hCB1; Log[drug], M = -5): 12.97 and -6.259 and -29.1004 and -18.7713 and 7.052 and 41.6727 and 31.5861 and -0.2412 and 17.8549 and 115.231 and 93.3593 and 69.1731
- response, replicate values of concentration-response curve (FigS7f) (hCB1; Log[drug], M = -5.52): -14.7516 and -1.011 and 3.958 and 21.4628 and 26.9697 and -2.702 and -24.3795 and -8.092 and 23.1695 and 55.5034 and 99.9754 and 83.8088
- response at Log[drug], M -5.52 (FigS4e) (hCB1; Log[drug], M = -5.52, individual replicates): 41.0598 and 42.1112 and 37.5809 and 36.0059 and 27.2068 and 23.0093 and 28.7041 and 23.0465 and 29.4359 and 31.2692 and 37.5598 and 31.3786
- response, replicate values of concentration-response curve (FigS7f) (hCB1; Log[drug], M = -6): -7.78 and 1.232 and -8.579 and 16.9776 and 8.83 and 54.3719 and -17.0743 and 6.68 and 7.903 and 46.3174 and 81.0931 and 82.3871
- response at Log[drug], M -6 (FigS4e) (hCB1; Log[drug], M = -6, individual replicates): 26.6779 and 28.882 and 31.009 and 30.2093 and 13.1731 and 19.3667 and 17.0092 and 18.0259 and 28.822 and 23.6752 and 23.7677 and 25.0376
- response, replicate values of concentration-response curve (FigS7f) (hCB1; Log[drug], M = -6.52): 6.949 and 23.0344 and 26.685 and -30.9662 and -12.5345 and 9.44 and -7.445 and 20.4415 and 28.8782 and 41.1229 and 58.9482 and 96.877
- response at Log[drug], M -6.52 (FigS4e) (hCB1; Log[drug], M = -6.52, individual replicates): 20.6989 and 18.775 and 18.227 and 14.6552 and 8.92 and 7.4713 and 4.648 and 5.829 and 9.707 and 10.7245 (2×) and 6.125
- response, replicate values of concentration-response curve (FigS7f) (hCB1; Log[drug], M = -7): 31.5144 and 45.4069 and -35.2101 and -37.1897 and 1.93 and 0.2842 and 7.478 and -20.5097 and -17.3775 and 49.0331 and 80.6374 and 65.8924
- response at Log[drug], M -7 (FigS4e) (hCB1; Log[drug], M = -7, individual replicates): 6.9232 and 8.043 and 10.8845 and 9.988 and 0.5556 and -1.865 and 0.4774 and 0.6189 and 2.467 and 3.148 and 2.635 and 4.207
- response, replicate values of concentration-response curve (FigS7f) (hCB1; Log[drug], M = -7.52): -4.763 and -11.0123 and 28.1301 and -8.049 and -20.0319 and -11.1013 and -22.9649 and -19.4286 and 2.9819 and 44.3307 and 18.8869 and 45.9893
- response at Log[drug], M -7.52 (FigS4e) (hCB1; Log[drug], M = -7.52, individual replicates): 6.822 and 6.684 and 9.44 and 7.52 and -3.124 and -0.9675 and -2.021 and -2.681 and -0.3421 and -0.05622 and 2.349 and 1.533
- response at Log[drug], M -8 (FigS4e) (hCB1; Log[drug], M = -8, individual replicates): 5.884 and 9.216 and 9.707 and 9.61 and -1.035 and -0.111 and -1.31 and -2.509 and 0.4231 and 1.197 and 7.663 and 1.289
- response at Log[drug], M -8.52 (FigS4e) (hCB1; Log[drug], M = -8.52, individual replicates): 12.6416 and 8.6666 and 7.701 and 11.5559 and 0.09453 and -1.259 and 2.111 and -1.3123 and 0.08722 and 0.8217 and 1.887 and 4.054
- response at Log[drug], M -9 (FigS4e) (hCB1; Log[drug], M = -9, individual replicates): 6.15 and 10.745 and 10.5633 and 11.2546 and -2.544 and -0.8488 and 0.7085 and -0.4422 and 2.383 and 3.898 and 2.695 and 3.787
- response, replicate values of concentration-response curve (FigS7f) (hCB1; Log[drug], M = -9.52): -11.8869 and 10.4349 and -26.9456 and -12.2027 and 18.9813 and -12.6008 and 11.5803
- response at Log[drug], M -9.52 (FigS4e) (hCB1; Log[drug], M = -9.52, individual replicates): 7.12 and 7.04 and 8.157 and 9.473 and -0.8081 and -1.207 and -0.4666 and -1.821 and 4.375 and 2.502 and 0.01377 and 0.5555
- response, replicate values of concentration-response curve (FigS7f) (hCB1; Log[drug], M = -10): 17.8121 and -5.27 and 8.977 and 22.6969 and 39.8414 and 41.3409 and 56.1992 and 5.841 and 17.8346 and -4.352 and 10.4482 and -28.6471
- response at Log[drug], M -10 (FigS4e) (hCB1; Log[drug], M = -10, individual replicates): 8.321 and 7.43 and 8.2855 and 10.5544 and 1.814 and -2.821 and -0.4869 and -0.1291 and 2.41 and 4.577 and 0.8034 and 1.18
- response at Log[drug], M -10.52 (FigS4e) (hCB1; Log[drug], M = -10.52, individual replicates): 8.25 and 8.706 and 9.026 and 10.1955 and -1.024 and 0.4442 and -0.6414 and 0.7573 and 1.648 and 0.8217 and 2.116 and 5.22
- response at Log[drug], M -11 (FigS4e) (hCB1; Log[drug], M = -11, individual replicates): 3.256 and 4.195 and 6.189 and 8.184 and 0.0864 and 0.615 and -0.08844 and -0.05998 and 3.273 and 3.861 and 4.338 and 1.74
- response at Log[drug], M -11.52 (FigS4e) (hCB1; Log[drug], M = -11.52, individual replicates): 5.192 and 4.514 and 4.754 and 3.593 and 1.237 and 0.5215 and -0.05998 and -1.081 and -0.5647 and 0.7391 and 0.6014 and 3.236
- response at Log[drug], M -12 (FigS4e) (hCB1; Log[drug], M = -12, individual replicates): 0.3534 and 0.1806 and 0.07866 and -0.6126 and -2.04 and 1.058 and -0.6333 and 1.615 and -1.51 and 0.6106 and 0.6473 and 0.2525
- EC50 (hCB1; hCB1, read-out: Tango ß-arrestin recruitment EC50): > 10 µM
- Tango ß-arrestin recruitment Emax (hCB2 [2]): 14% [13 – 15]
- Tango ß-arrestin recruitment pEC50 (hCB2 [2]): 6.5 [6.4 – 6.6]
- EC50 (hCB2 [2]; read-out: Tango ß-arrestin recruitment EC50): 0.338 µM
